Tests used:
[1] = Methylone PTSD case series with long-term follow-up (CGI-I, safety); format: in vivo, human
Text: The patients were not given structured psychotherapy in conjunction with methylone treatment, which differs from recent studies of MDMA that emphasize the importance of a manualized psychedelic-assisted psychotherapy model.
No protected health information was disclosed, and no consent was obtained from patients for use of their archival data. Case narratives were systematically compiled from data collected as part of routine clinical work. Diagnoses were confirmed by an experienced clinician using semi-structured interviews. Baseline symptom severity was evaluated using the Clinical Global Impressions Scale-Severity (CGI-S). Symptom improvement was evaluated using the Clinical Global Impressions Scale-Improvement (CGI-I) following dosing. […] Because these case narratives were examined retrospectively from routine clinical care records, and not gathered prospectively in a research study, more specific validated rating scales for assessing PTSD symptoms were not available. Additionally, follow-up varied, with the length of follow-up ranging from one week (Case 2) to 15 years (Case 16).
Dosing summary: Methylone was administered orally. Other medications were not changed during methylone treatment. […] In several cases, treatment was continued, and, in some cases, the dose was further escalated in later sessions (see Table 5). Booster doses were included for 19 patients in one or more of the sessions. Starting doses were between 100 and 270 mg, and these as well as booster doses were selected based on clinical judgement.

Open field test (OFT) = format: in vivo, rat; settings: 5 or 15 mg/kg IP, 30 minutes before testing
Method: Method: Consecutive beam breaks and/or video-tracking of time spent in the center versus periphery of the open field are measured. Also measured are parameters such as distance traveled and ambulatory activity (horizontal and vertical) for the duration of the test session.
The open field test (OFT) capitalizes on a rodent's innate fear of open spaces to assess anxiety-like behavior. More time spent in the center of an open field reflects an anxiolytic (anti-anxiety) effect.
Locomotor activity was also measured in the OFT.
To investigate whether MBDB has an anti-anxiety (anxiolytic) effect, rats were dosed with MBDB (0.5-30 mg/kg, IP) or vehicle (saline) and 30-minutes later were tested in the open field for 30 minutes. This anxiety test capitalizes on a rodents' innate fear of wide-open spaces and propensity to hug the walls when placed into the open field. Therefore, a drug that increases the time spent in the center of the open field has anxiolytic activity and predicts utility for treating anxiety in humans.

[2] = Reserpine-induced fibromyalgia model, vonFrey test; format: in vivo, rat; settings: 15 mg/kg IP, 30 min before vonFrey test, day 4
Method: In this Example, male Sprague Dawley rats are tested in a behavioral model of FMA based on the protocol from Nakagura et al. (2009) Pain 146:26. This model uses three daily doses of reserpine (1 mg/kg, SC) or 0.5% acetic acid vehicle to reduce pain thresholds (i.e., increase pain perception) in the Von Frey Test (vFT, procedure outlined below).
Von Frey Test (vFT) procedure: Increasing pain thresholds in this test are consistent with a reduction in pain perception. Prior to the start of dosing, rats are tested for their baseline mechanical pain threshold. For von Frey measurements, animals are placed into wire bottom cubicles with opaque Plexiglas walls, allowing access to the underside of their paws. Animals are habituated to this environment for at least 30 minutes before the start of the von Frey filament application. Static allodynia is measured using Semmes-Weinstein von Frey filaments (Stoelting, Wood Dale, IL). Mechanical allodynia is tested by touching the plantar surface of the animals' left and right hind paws with von Frey filaments which deliver a calibrated amount of force. Each von Frey filament is presented perpendicularly to the plantar surface for approximately 6 seconds of constant application in either ascending or descending strength in a modified up-and-down method (Chaplan et al. (1994) J Neurosci. Meth. 53:55). Stimulation is presented at intervals of several seconds, allowing for apparent resolution of any behavioral responses to previous stimuli. A positive response is noted if the paw is sharply withdrawn. Flinching immediately upon removal of the hair is also considered a positive response. Ambulation is considered an ambiguous response, and, in such cases, the stimulus is repeated.
VonFrey measurements: Animals were placed into wire bottom cubicles with opaque Plexiglas walls, allowing access to the underside of their paws. […] Static allodynia was measured using Semmes-Weinstein von Frey filaments (Stoelting, Wood Dale, IL). […] The average hindpaw thresholds were determined 60-min post-injection. […]

[3] = Excipient compatibility study (assay, appearance, degradation products); format: physicochemical
Method: Analyses were conducted at t=0, 2, 4 and 8 weeks for appearance, assay, and related substances for samples stored in closed vials at 25° C./60% RH and 40° C./75% RH.
Excipient Compatibility Sample Mixtures: The excipients and API were dispensed individually by weight into 20 mL clear borosilicate (type I) glass vials to fill the appropriate weights as listed in Table 12. Table 12 lists mixtures of API with varied excipients and a stand-alone control sample of API alone. Each excipient mixture sample preparation was conducted using a clean spatula to mix the vial ingredients for 30-60 seconds. Each vial was properly labeled with the description and storage conditions. One vial was used for testing at the initial (t=0) time point. Three vials, closed, were placed at each storage condition to allow sampling at each time point and one vial, closed, was placed at each storage condition for overage.

## CNC(C)C(=O)c1ccc2c(c1)OCO2 (stereo not drawn) [Methylone, 3,4-methylenedioxy-N-methylcathinone]
[1]; 21 PTSD patients
  Adverse events noted: four adverse events were noted in three of the 21 patients
  Patients much improved or very much improved per CGI-I: 81%
[1]; of 17 patients with durability information
  Patients reporting a durable effect: 16
[1]; of 21 PTSD patients
  Patients achieving CGI-I 1 (very much improved): 9 patients
  Patients achieving CGI-I 2 (much improved): 8 patients
  Patients achieving a CGI-I of 1 or 2: 17 patients
[1]; patients with a single dose session (n=9)
  Patients achieving CGI-I 1 or 2: 89%
[1]; patients with multiple dosing sessions (n=12)
  Patients with initial improvement after the initial session: 83%
Open field test (OFT)
  Time spent in the center of the open field vs. vehicle: significantly increases the time spent in the center of the open field
[2]
  Paw withdrawal thresholds: significantly increased paw withdrawal thresholds
[3]; 2 Week 25° C. 60% RH
  Total Degradation Products: <LOQ
[3]; 2 Week 40° C. 75% RH
  Total Degradation Products: <LOQ
[3]; 4 Week 25° C. 60% RH
  Total Degradation Products: <LOQ
[3]; 8 Week 25° C. 60% RH
  Total Degradation Products: <LOQ
[3]; t = 0, LOQ ≥ 0.1%
  Total Degradation Products: <LOQ

Source: patent US12295937B2, “Psychoactive medicines and their use for treating psychiatric and neurological conditions and disorders” (Transcend Therapeutics, Inc., priority 2021, dated 2025)
